# Data: patent US10281476B2, “Methods to identify modulators of RyR calcium channels” (REGENTS OF THE UNIVERSITY OF MINNESOTA, priority 2013, dated 2019)
# Where a SMILES comes first, the peptide text is derived from it. The star is where a group is joined. 5FAM = O=C1OC2(c3ccc(O)cc3Oc3cc(O)ccc32)c2ccc(C(=O)*)cc21
# Tests used:
# RyR2 [1] = biological target: T1, RyR2 (Rattus norvegicus, UniProt B0LPN4); test: F-DPc10 wash-in and washout kinetics at the myocyte Z-line; type: binding; set-up: endogenous in cells; host or cells: saponin-permeabilized adult rat ventricular myocytes
# Protocol: To characterize DPc10-binding kinetics at Z-lines, we performed F-DPc10 wash-in (500 nmol/L) and washout experiments in permeabilized myocytes (FIG. 10A). Association (τwash-in=79.0±3.2 minutes) and dissociation (τwashout=149.8±4.4 minutes) were very slow compared with similar FKBP12.6 measurements (Guo et al., Circ Res, 2010; 106:1743-1752). From the wash-in/washout measurements, we calculated the association and dissociation rates constants, kon and koff, respectively, according to the following equation: kwash-in=[F-DPc10]kon+koff where kwashout≈koff and k=1/τ (s^−1). Accordingly, kon=202±20 (L mol^−1 s^−1) and koff=0.11±0.01 (10^−3 s^−1). […] We repeated this kinetic analysis using FRET between FKBP12.6 and DPc10, thus assessing the RyR2-specific DPc10 binding (FIG. 11A AND 11B). […] Based on these kinetic and affinity analyses, we infer that most of the Z-line-specific DPc10 binding is to RyR2. This is also consistent with Bmax, which would imply ≈1 DPc10 per RyR2 monomer.
# We were intrigued by the slow kwash-in and conducted measurements to further understand the basis of this slow association. We tested the hypothesis that at resting [Ca^2+]i, DPc10 access to its RyR2 binding site is sterically hindered. If the N-terminal and central domains are tightly zipped to each other, then this interaction may occlude the DPc10-binding site on the RyR2, thus limiting the kon for DPc10. Alternatively, a limiting factor may be the rate at which DPc10 adopts a conformation that can bind to RyR2. To discern between these mechanisms, we determined the effect of [F-DPc10] on τwash-in. If the small fraction of DPc10 in the right conformation limits binding rate, then τwash-in should be faster at higher [F-DPc10], according to Equation. […] Instead, a 10-fold increase in [F-DPc10] had no significant effect on the τwash-in, although it did increase Bmax (FIG. 10B). The same was seen when using FKBP12.6-DPc10 FRET to assess τwash-in with 0.5 vs 5 μmol/L HF647-DPc10 (FIG. 12A AND 12B).
# In our working model, under resting conditions, the RyR2 closed state may be stabilized by the interaction between the N-terminal and central domain in the zipped state. We hypothesized that conditions that promote RyR2 opening might enhance the rate of unzipping and accelerate τwash-in for F-DPc10. To test this, we first monitored F-DPc10 wash-in at elevated Ca^2+ (500 nmol/L). However, the 13% faster mean τwash-in was not significant (FIG. 13A). […] Thus, we preincubated myocytes with ryanodine (100 μmol/L) plus caffeine ([…]), which are known to favor long RyR2 openings and were reported to cause RyR2 domain unzipping in HEK293 cells (Liu et al., J Cell Sci, 2010; 123: 1775-1784). Ryanodine+caffeine produced a 21% faster τwash-in (P=0.002; FIG. 13B). However, the most significant effect was seen after presaturating RyR2 with NF-DPc10 (and then NF-DPc10 washout with F-DPc10 present; FIG. 13A). […] Assuming that koff of NF-DPc10 is the same as for F-DPc10 and using Equation, the kon is increased by 3.2-fold by unzipping as a result of prebinding of NF-DPc10 to the RyR2. Our working hypothesis is that the RyR2 open state may increase the probability of an RyR2 shifting to the unzipped state and may allow faster F-DPc10 wash-in. It also seems that the RyR2 open state (favored by caffeine-ryanodine) differs from the unzipped state (bound with DPc10).
# Both FKBP12.6 and CaM bind to the RyR2 and can reduce channel opening, which might alter DPc10 binding. […] Neither CaM nor FKBP12.6 pretreatment altered M-line F-DPc10 fluorescence (FIG. 15). […] We infer that CaM stabilizes the domain interaction between N-terminal and central domains in the zipped state and thereby may reduce DPc10 access to its binding site. To test for direct CaM-DPc10 interaction, we performed control FRET measurements between donor-labeled CaM and acceptor-labeled DPc10 in solution in the absence of RyR. The maximal FRET efficiency (<1%) ruled out direct CaM-DPc10 interaction. […]
# Target sequence in this assay (B0LPN4 whole entry): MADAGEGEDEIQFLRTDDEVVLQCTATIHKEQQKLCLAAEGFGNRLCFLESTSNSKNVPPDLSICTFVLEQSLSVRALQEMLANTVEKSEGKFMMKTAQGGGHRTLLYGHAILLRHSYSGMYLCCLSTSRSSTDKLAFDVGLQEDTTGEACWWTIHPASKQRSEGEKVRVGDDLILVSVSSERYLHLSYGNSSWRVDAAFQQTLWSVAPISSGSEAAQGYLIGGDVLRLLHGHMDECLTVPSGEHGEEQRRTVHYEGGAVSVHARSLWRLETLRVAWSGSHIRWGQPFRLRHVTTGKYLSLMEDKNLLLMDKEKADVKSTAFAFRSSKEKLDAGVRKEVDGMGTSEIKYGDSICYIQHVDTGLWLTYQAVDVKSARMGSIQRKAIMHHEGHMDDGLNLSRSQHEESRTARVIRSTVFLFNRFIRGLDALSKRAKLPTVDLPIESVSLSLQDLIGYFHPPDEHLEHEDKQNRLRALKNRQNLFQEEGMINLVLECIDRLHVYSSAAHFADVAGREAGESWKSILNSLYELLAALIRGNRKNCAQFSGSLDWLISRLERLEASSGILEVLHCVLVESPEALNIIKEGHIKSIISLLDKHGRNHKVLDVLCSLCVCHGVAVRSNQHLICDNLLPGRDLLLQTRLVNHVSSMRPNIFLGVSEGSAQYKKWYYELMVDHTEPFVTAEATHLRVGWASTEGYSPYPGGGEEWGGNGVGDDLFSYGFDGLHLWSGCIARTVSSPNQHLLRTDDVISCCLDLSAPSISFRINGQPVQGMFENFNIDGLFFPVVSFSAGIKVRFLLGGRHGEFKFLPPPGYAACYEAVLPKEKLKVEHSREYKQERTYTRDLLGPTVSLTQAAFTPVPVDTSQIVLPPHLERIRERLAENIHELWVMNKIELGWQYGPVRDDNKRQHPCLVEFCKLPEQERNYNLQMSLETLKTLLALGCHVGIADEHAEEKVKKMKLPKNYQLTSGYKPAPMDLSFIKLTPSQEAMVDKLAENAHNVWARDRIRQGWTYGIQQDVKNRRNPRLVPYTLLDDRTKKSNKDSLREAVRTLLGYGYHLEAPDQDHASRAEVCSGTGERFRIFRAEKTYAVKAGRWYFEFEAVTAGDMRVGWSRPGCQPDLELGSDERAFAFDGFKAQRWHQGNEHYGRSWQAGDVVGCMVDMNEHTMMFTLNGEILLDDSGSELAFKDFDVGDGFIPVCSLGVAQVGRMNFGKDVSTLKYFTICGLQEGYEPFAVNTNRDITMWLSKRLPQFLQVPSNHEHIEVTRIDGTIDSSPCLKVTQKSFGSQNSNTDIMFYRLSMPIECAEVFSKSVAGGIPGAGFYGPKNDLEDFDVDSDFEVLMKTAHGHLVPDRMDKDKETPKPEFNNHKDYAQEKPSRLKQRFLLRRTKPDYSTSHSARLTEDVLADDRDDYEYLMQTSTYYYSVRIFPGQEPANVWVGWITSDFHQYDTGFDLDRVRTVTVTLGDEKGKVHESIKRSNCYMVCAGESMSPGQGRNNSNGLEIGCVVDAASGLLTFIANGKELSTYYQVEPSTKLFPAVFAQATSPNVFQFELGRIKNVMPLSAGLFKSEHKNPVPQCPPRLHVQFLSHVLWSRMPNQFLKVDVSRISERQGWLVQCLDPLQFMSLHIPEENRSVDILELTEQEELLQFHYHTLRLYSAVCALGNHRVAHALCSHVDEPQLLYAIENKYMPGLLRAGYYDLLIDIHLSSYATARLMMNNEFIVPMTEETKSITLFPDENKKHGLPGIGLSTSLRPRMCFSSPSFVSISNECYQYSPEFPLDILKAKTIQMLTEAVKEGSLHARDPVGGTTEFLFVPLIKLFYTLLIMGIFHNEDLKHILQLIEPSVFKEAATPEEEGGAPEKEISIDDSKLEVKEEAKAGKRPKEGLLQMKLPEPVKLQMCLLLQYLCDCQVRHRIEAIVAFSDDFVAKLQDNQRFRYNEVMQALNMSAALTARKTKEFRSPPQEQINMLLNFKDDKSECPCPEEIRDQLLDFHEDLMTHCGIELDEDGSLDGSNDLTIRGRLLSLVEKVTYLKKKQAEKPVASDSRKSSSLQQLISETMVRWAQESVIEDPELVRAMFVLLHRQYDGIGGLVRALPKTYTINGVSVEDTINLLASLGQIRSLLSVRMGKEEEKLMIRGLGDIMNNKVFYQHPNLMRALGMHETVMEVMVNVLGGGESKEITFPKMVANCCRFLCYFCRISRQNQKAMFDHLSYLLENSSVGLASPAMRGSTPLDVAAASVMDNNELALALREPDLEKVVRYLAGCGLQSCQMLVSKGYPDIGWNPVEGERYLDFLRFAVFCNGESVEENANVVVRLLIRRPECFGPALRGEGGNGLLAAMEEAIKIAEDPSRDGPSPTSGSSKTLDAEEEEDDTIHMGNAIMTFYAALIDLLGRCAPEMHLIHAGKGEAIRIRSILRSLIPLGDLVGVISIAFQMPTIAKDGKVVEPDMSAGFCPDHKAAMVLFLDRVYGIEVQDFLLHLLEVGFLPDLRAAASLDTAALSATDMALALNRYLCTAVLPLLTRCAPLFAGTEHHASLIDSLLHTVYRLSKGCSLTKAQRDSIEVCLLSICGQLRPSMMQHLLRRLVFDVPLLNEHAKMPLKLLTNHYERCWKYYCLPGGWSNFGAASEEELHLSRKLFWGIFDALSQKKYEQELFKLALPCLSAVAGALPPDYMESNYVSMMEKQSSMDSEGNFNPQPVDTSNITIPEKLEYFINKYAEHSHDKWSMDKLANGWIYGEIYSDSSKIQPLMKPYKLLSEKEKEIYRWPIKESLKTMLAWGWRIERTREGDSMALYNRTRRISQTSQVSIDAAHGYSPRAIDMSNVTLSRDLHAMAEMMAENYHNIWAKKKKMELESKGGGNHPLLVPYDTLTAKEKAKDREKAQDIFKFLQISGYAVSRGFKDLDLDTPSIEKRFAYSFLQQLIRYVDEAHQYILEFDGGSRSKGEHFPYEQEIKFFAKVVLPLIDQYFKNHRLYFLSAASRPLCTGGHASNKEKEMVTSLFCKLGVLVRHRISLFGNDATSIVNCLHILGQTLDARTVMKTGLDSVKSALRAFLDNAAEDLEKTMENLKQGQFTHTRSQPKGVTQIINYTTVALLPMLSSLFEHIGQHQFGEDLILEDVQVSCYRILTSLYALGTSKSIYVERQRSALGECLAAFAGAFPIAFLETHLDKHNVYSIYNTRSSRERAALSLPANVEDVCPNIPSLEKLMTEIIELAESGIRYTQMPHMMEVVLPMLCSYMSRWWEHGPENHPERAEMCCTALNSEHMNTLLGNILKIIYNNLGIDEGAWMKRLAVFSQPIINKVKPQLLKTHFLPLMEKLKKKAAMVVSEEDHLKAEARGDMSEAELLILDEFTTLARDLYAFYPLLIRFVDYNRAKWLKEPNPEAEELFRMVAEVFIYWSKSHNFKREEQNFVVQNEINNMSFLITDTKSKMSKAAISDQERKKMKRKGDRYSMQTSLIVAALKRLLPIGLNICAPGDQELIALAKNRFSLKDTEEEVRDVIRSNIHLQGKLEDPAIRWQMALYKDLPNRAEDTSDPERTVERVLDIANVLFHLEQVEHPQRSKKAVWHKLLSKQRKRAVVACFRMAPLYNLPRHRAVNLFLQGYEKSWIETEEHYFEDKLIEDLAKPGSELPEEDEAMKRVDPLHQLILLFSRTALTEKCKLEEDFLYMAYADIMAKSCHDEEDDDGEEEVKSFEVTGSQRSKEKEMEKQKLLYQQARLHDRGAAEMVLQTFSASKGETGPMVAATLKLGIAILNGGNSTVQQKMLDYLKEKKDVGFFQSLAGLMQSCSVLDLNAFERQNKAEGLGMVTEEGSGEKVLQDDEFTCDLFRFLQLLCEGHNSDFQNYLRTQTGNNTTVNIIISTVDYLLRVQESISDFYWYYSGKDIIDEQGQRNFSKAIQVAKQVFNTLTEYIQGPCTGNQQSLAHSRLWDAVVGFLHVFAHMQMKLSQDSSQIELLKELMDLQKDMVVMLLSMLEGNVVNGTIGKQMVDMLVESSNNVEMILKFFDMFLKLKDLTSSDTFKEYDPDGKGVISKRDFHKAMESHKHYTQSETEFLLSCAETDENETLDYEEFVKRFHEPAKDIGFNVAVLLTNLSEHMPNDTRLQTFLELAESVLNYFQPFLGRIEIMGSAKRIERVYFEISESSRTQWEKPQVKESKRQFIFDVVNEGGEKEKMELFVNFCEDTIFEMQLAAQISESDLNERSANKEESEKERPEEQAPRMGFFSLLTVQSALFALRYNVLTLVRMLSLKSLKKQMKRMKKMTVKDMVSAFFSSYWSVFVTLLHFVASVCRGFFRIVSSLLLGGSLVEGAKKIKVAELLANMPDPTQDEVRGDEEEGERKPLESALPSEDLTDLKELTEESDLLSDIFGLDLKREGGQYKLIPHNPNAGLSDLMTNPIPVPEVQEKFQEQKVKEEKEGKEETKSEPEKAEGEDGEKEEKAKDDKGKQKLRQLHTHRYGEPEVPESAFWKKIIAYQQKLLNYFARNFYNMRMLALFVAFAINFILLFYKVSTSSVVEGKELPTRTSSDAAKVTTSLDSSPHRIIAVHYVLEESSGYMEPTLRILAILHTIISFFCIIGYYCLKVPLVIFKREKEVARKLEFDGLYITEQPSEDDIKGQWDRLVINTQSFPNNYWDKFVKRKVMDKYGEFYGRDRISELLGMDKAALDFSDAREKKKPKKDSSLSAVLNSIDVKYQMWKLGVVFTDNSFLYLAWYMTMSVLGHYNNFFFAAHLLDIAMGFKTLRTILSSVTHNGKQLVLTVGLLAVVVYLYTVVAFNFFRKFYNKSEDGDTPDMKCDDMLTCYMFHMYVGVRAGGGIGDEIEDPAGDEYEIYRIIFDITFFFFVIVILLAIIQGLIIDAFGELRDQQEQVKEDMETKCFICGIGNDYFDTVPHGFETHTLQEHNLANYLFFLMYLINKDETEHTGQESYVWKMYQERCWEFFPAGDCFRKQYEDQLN
# RyR2 [2] = biological target: T1, RyR2; test: HF647-DPc10 wash-in kinetics by FRET from F-FKBP (donor quench) in permeabilized myocytes; type: binding; set-up: These fluorescent proteins were added to saponin-permeabilized myocytes with or without pre-equilibration with saturating DPc10 concentration; endogenous in cells; host or cells: saponin-permeabilized rat ventricular myocytes; details: myocytes
# Protocol: The FRET pair we used in this consisted of ALEXA FLUOR™ 488 (donor) covalently attached to FKBP12.6 (F-FKBP) and HiLyte Fluor™647 (acceptor) covalently attached to DPc10 (F-DPc10).^8 To detect F-DPc10 specifically bound to RyR2, we measured donor fluorescence intensities through a 500-530 nm bandpass filter before and after equilibration with acceptor (donor quenching method). The FRET efficiency (E) was calculated according to: E=1-FDA/FD, Where FD and FDA are the fluorescence intensities of the donor-only and donor-plus-acceptor samples, respectively (Oda et al., Circ Res. 2013;112:487-497). Statistics
# Next we tested whether RyR2 oxidation would increase HF647-DPc10 access. Here, we used FRET between F-FKBP as a donor and HF647-DPc10 as an acceptor, to detect DPc10 that specifically binds at RyR2 (Oda et al., Circ Res. 2013; 112:487-497).
# Target sequence in this assay (B0LPN4 whole entry): as above
# Target sequence in this assay (P68106 with tags, fused parts or gaps T15C/C23A/C77I partner): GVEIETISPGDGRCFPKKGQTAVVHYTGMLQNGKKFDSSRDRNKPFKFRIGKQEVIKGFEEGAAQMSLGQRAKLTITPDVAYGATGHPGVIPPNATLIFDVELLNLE
# RyR2 [3] = biological target: T1, RyR2; test: Steady-state F-DPc10 binding at the Z-line of saponin-permeabilized myocytes (confocal); set-up: endogenous in cells; host or cells: saponin-permeabilized adult rat ventricular myocytes; details: in-cell binding isotherm, [Ca2+]i 50 nmol/L
# Protocol: Rat ventricular myocytes were isolated and permeabilized as previously described (Li et al., Circ Res, 2002; 90:309-316). All procedures were performed according to the Guiding Principles in the Care and Use of the Animals and were approved by the Council of American Physiological Society. DPc10, FKBP12.6, and CaM were labeled at specific sites with small fluorescence probes, similar to our previous studies (Guo et al., Circ Res, 2010; 106:1743-1752; Cornea et al., PNAS USA, 2009; 106:6128-6133; Guo et al., Biophys J, 2011; 101:2170-2177).
# Confocal images was measured using a Biorad RADIANCE2100™ laser scanning confocal microscope equipped with an Argon ion laser, Green HeNe laser and with a Nikon Fluo x40 oil lens. FRET (fluorescence resonance energy transfer) experiments between CaM and DPc10, and FKBP12.6 and DPc10 were performed using an Olympus FV1000 confocal microscope. All experiments were done at room temperature.
# Myocytes were exposed to […] F-DPc10, with intracellular [Ca^2+] ([Ca^2+]i) set at 50 nmol/L. F-DPc10 fluorescence is highest at the Z-lines, where RyR2 is concentrated, forming a typical cross-striated pattern. The difference between fluorescence intensity at the Z-line (Fz) and M-line (FM) is taken to represent [F-DPc10] specifically bound at the myocyte Z-line. We calibrated the bound [F-DPc10] in permeabilized myocytes using the linear relationship between F-DPc10 fluorescence and bath [F-DPc10] (FIG. 7B). […] To further test whether this Z-line-associated F-DPc10 represents RyR2-bound F-DPc10, we measured FRET between FKBP12.6 (known to specifically bind to RyR2 with subnanomolar affinity) (Guo et al., Circ Res, 2010; 106:1743-1752) and F-DPc10. […] Donor (AF568-FKBP12.6) fluorescence at the Z-line was quenched by HF647-DPc10, but the M-line signal was not (FIG. 9B). […]
# Target sequence in this assay (B0LPN4 whole entry): as the sequence (B0LPN4 whole entry) above
# [4] = calculated from wash-in/washout
smiles,measurement,setting,value
CC[C@H](C)[C@H](NC(=O)CNC(=O)[C@H](Cc1ccc(O)cc1)NC(=O)[C@@H](NC(=O)[C@H](CCCNC(=N)N)NC(=O)[C@H](CC(=O)O)NC(=O)[C@H](CC(C)C)NC(=O)[C@H](Cc1ccccc1)NC(=O)[C@H](CC(C)C)NC(=O)[C@@H](NC(=O)[C@H](CCSC)NC(=O)[C@H](C)NC(=O)[C@H](C)NC(=O)[C@H](CCCCN)NC(=O)[C@H](Cc1c[nH]cn1)NC(=O)[C@H](CC(=O)O)NC(=O)[C@@H]1CCCN1C(=O)[C@H](CS)NC(=O)[C@H](Cc1ccccc1)NC(=O)CNC(=O)c1ccc2c(c1)C(=O)OC21c2ccc(O)cc2Oc2cc(O)ccc21)C(C)C)C(C)C)C(=O)N[C@@H](CCC(=O)O)C(=O)N[C@H](C(=O)N[C@@H](CCC(N)=O)C(=O)N[C@@H](CC(=O)O)C(=O)N[C@@H](Cc1ccccc1)C(=O)N[C@@H](CC(C)C)C(=O)N[C@@H](CC(C)C)C(=O)N[C@@H](Cc1c[nH]cn1)C(=O)N[C@@H](CC(C)C)C(=O)N[C@@H](CC(C)C)C(=O)N[C@@H](CCC(=O)O)C(=O)N[C@H](C(=O)NCC(=O)N[C@@H](Cc1ccccc1)C(=O)N[C@@H](CC(C)C)C(=O)N1CCC[C@H]1C(=O)O)C(C)C)C(C)C [F-DPc10] (5FAM-GFCPDHKAAMVLFLDRVYGIEVQDFLLHLLEVGFLP-OH),association τwash-in,RyR2 [1]; F-DPc10 500 nmol/L,79.0 ± 3.2 min
same,dissociation τwashout,RyR2 [1]; F-DPc10 500 nmol/L,149.8 ± 4.4 min
same,koff,RyR2 [1]; [4],0.00011 ± 1e-05 s⁻¹
same,kon,RyR2 [1]; [4],202 ± 20 M⁻¹ s⁻¹
same,kon slower than that measured for FKBP12.6,RyR2 [1]; similar conditions,≈ 1800 fold
same,τwash-in in controls,RyR2 [2],~80 min
same,"maximal binding (Bmax), concentration of F-DPc10-binding sites",RyR2 [3],1.59±0.03 μmon
